“And” between values parts separate entries of the source, which are not always exact repeats. Equal entries are not always repeated.
Tested on: mSTC-1
Assay: mSTC LDH secretion
Format: cell-based
Settings: read-out: Primary CRC (EC50, μM) mSTC LDH
Procedure: (§1) In light of the above results, additional compounds (Table 7) were prepared and phenotypic assays were carried out using hNCI-H716 and mSTC-1 cell lines to monitor GLP-1 secretion (single point (SP) and concentration response curves (CRC)) (Table 8), as well as a secondary assay with pituitary cells (Table 9).

`CC1(C)C(=O)C[C@@]2(C)c3ccccc3N(Cc3ccccc3)[C@@]12C` [Compound 30] and `CC1(C)C(=O)C[C@]23CCCC[C@]12N(Cc1ccccc1)c1ccccc13` [Compound 25] cannot be ordered by EC50: > 40 µM for the first, > 40 µM for the second.

`CN1c2ccccc2[C@]2(C)C3CCC(C3=O)[C@H]12` (some centres unmarked) [Compound 23] and `O=C1C2CCC1[C@@]1(CCO)c3ccccc3N(Cc3ccccc3)[C@@H]21` (some centres unmarked) [Compound 24] cannot be ordered by EC50: > 40 µM for the first, > 40 µM for the second.

Tested on: hNCI-H716
Assay: hNCI-H716 GLP-1 secretion
Format: cell-based
Settings: 2 μM; GLP-1 secretion, single point
Source text: Selected compounds of this invention were screened for K-Ras Wnt synthetic lethal, anti-angiogenic activity, Wnt pathway modulatory activity, insulin and GLP-1 secretion modulatory activity, GPR119 receptor agonist activity, mGlu2R antagonist activity, CGRP receptor antagonist activity, Apelin receptor agonist activity and hexokinase 2 inhibitory activity using the PD^2 and TD^2 Screening Panel (Eli Lilly & Company). See Lee, et al. (2011) J. Biomol. Screen. 16:588-602.
as §1

Point of comparison: `Cn1c2c(c3ccccc31)[C@@H](c1ccc(C(F)(F)F)cc1)[C@@H]1C=C[C@H]2C1` (racemic) [Compound 11c], “Primary SP hNCI (% Stim.)” value 1%. Against it:
- COc1ccc2[nH]c3c(c2c1)C(C)(C)C1C=CC3C1 (centres unmarked) [Compound 11q] — higher, 1.3%
- CC1(C)c2c([nH]c3ccccc23)C2C=CC1C2 (centres unmarked) [Compound 11p] — lower, −0.5%
- COC(=O)c1ccc2[nH]c3c(c2c1)C(C)(C)C1C=CC3C1 (centres unmarked) [Compound 11r] — lower, −1.1%
- COc1ccc([C@@H]2c3c(n(C)c4ccccc34)[C@H]3C=C[C@@H]2C3)cc1 (racemic) [Compound 11b] — lower, −0.5%

Same assay, conditions: 2 μM; GLP-1 secretion, single point; read-out: Primary SP hNCI (% Stim.)

Point of comparison: `CC1(C)c2c([nH]c3ccc(C(F)(F)F)cc23)C2C=CC1C2` (centres unmarked) [Compound 11y], activation at 2 µM -0.4%. Against it:
- Cc1ccc(C2CC3(CCCC3)c3c2n(C)c2ccccc32)cc1 (centres unmarked) [Compound 19w] — lower, -0.8%
- CC1(C)C(=O)C[C@@]2(C)c3ccccc3N(Cc3ccccc3)[C@@]12C [Compound 30] — higher, 3.1%
- CC1(C)c2c(n(Cc3ccccc3)c3ccccc23)[C@H]2C=C[C@@H]1C2 [Compound 11o] — higher, -0.3%
- COc1ccc(C2CC3(CCCC3)c3c2n(C)c2ccccc32)cc1 (centres unmarked) [Compound 19v] — lower, -2%
- CC1(C)C(=O)C[C@]23CCCC[C@]12Nc1ccccc13 [Compound 20] — higher, -0.2%
- Cc1ccc(C2CC3(CCCCC3)c3c2[nH]c2ccc(C)cc32)cc1 (centres unmarked) [Compound 19g] — higher, 0%
- CC(=O)Oc1ccc(C2CC3(CCCCC3)c3c2[nH]c2ccccc32)cc1 (centres unmarked) [Compound 19i] — higher, 0%
- Cn1c2c(c3ccccc31)C1(CCC1)[C@@H]1C=C[C@H]2C1 [Compound 11h] — lower, -2.2%
- c1ccc(C2CC3(CCCCC3)c3c2[nH]c2ccccc32)cc1 (centres unmarked) [Compound 19e] — higher, 0%
- CC1C=CC(C)C(c2ccccc2)c2c1n(C)c1ccccc21 (centres unmarked) [Compound 11n] — higher, 10.3%
- CN1c2ccccc2[C@]2(C)C3CCC(C3=O)[C@H]12 (some centres unmarked) [Compound 23] — higher, 6.4%
- O=C1OC2CCC1[C@]13CCN[C@]21Nc1ccccc13 (some centres unmarked) [Compound 27] — higher, 1%
- O=C1C2CCC1[C@@]1(CCO)c3ccccc3N(Cc3ccccc3)[C@@H]21 (some centres unmarked) [Compound 24] — higher, 1%
- CC1(C)C(=O)C[C@]23CCCC[C@]12N(Cc1ccccc1)c1ccccc13 [Compound 25] — higher, 0.6%

Same assay, conditions: 20 μM; GLP-1 secretion, single point

Point of comparison: `Cn1c2c(c3ccccc31)[C@@H](c1ccc(C(F)(F)F)cc1)[C@@H]1C=C[C@H]2C1` (racemic) [Compound 11c], “Primary SP hNCI (% Stim.)” value 0.7%. Against it:
- COc1ccc2[nH]c3c(c2c1)C(C)(C)C1C=CC3C1 (centres unmarked) [Compound 11q] — higher, 5.9%
- CC1(C)c2c([nH]c3ccccc23)C2C=CC1C2 (centres unmarked) [Compound 11p] — higher, 23.3%
- COC(=O)c1ccc2[nH]c3c(c2c1)C(C)(C)C1C=CC3C1 (centres unmarked) [Compound 11r] — higher, 13.4%
- COc1ccc([C@@H]2c3c(n(C)c4ccccc34)[C@H]3C=C[C@@H]2C3)cc1 (racemic) [Compound 11b] — lower, −2.4%

Same assay, conditions: 20 μM; GLP-1 secretion, single point; read-out: Primary SP hNCI (% Stim.)

Point of comparison: `c1ccc(C2CC3(CCCCC3)c3c2[nH]c2ccccc32)cc1` (centres unmarked) [Compound 19e], activation at 20 µM 0%. Against it:
- Cc1ccc(C2CC3(CCCC3)c3c2n(C)c2ccccc32)cc1 (centres unmarked) [Compound 19w] — lower, -1.9%
- CC1(C)C(=O)C[C@@]2(C)c3ccccc3N(Cc3ccccc3)[C@@]12C [Compound 30] — lower, -0.2%
- CC1(C)c2c(n(Cc3ccccc3)c3ccccc23)[C@H]2C=C[C@@H]1C2 [Compound 11o] — lower, -2.1%
- COc1ccc(C2CC3(CCCC3)c3c2n(C)c2ccccc32)cc1 (centres unmarked) [Compound 19v] — lower, -2.4%
- CC1(C)C(=O)C[C@]23CCCC[C@]12Nc1ccccc13 [Compound 20] — lower, -1.1%
- Cc1ccc(C2CC3(CCCCC3)c3c2[nH]c2ccc(C)cc32)cc1 (centres unmarked) [Compound 19g] — the same, 0%
- CC(=O)Oc1ccc(C2CC3(CCCCC3)c3c2[nH]c2ccccc32)cc1 (centres unmarked) [Compound 19i] — higher, 23.4%
- Cn1c2c(c3ccccc31)C1(CCC1)[C@@H]1C=C[C@H]2C1 [Compound 11h] — lower, -3.3%
- CC1(C)c2c([nH]c3ccc(C(F)(F)F)cc23)C2C=CC1C2 (centres unmarked) [Compound 11y] — higher, 55.9%
- CC1C=CC(C)C(c2ccccc2)c2c1n(C)c1ccccc21 (centres unmarked) [Compound 11n] — lower, -3.5%
- CN1c2ccccc2[C@]2(C)C3CCC(C3=O)[C@H]12 (some centres unmarked) [Compound 23] — lower, -1.1%
- O=C1OC2CCC1[C@]13CCN[C@]21Nc1ccccc13 (some centres unmarked) [Compound 27] — higher, 0.4%
- O=C1C2CCC1[C@@]1(CCO)c3ccccc3N(Cc3ccccc3)[C@@H]21 (some centres unmarked) [Compound 24] — higher, 4.6%
- CC1(C)C(=O)C[C@]23CCCC[C@]12N(Cc1ccccc1)c1ccccc13 [Compound 25] — lower, -1.1%

Same assay, conditions: GLP-1 secretion, concentration response curve; read-out: Primary CRC (EC50, μM) hNCI

`CC1(C)C(=O)C[C@@]2(C)c3ccccc3N(Cc3ccccc3)[C@@]12C` [Compound 30] and `CC1(C)C(=O)C[C@]23CCCC[C@]12N(Cc1ccccc1)c1ccccc13` [Compound 25] cannot be ordered by EC50: > 40 µM for the first, > 40 µM for the second.

`CC(=O)Oc1ccc(C2CC3(CCCCC3)c3c2[nH]c2ccccc32)cc1` (centres unmarked) [Compound 19i] and `O=C1C2CCC1[C@@]1(CCO)c3ccccc3N(Cc3ccccc3)[C@@H]21` (some centres unmarked) [Compound 24] cannot be ordered by EC50: > 40 µM for the first, > 40 µM for the second.

`CN1c2ccccc2[C@]2(C)C3CCC(C3=O)[C@H]12` (some centres unmarked) [Compound 23] was tested, and the EC50 was > 40 µM.

Tested on: mSTC-1
Assay: mSTC-1 GLP-1 secretion
Format: cell-based
Settings: 2 μM, single point, read-out: Primary SP mSTC (% Stim.)
Procedure: as §1

Point of comparison: `CC1(C)C(=O)C[C@]23CCCC[C@]12N(Cc1ccccc1)c1ccccc13` [Compound 25], activation at 2 µM 78.5%. Against it:
- CC1(C)C(=O)C[C@@]2(C)c3ccccc3N(Cc3ccccc3)[C@@]12C [Compound 30] — lower, 49.9%
- CC1(C)C(=O)C[C@]23CCCC[C@]12Nc1ccccc13 [Compound 20] — lower, -4.1%
- Cc1ccc(C2CC3(CCCCC3)c3c2[nH]c2ccc(C)cc32)cc1 (centres unmarked) [Compound 19g] — lower, 34.9%
- CC(=O)Oc1ccc(C2CC3(CCCCC3)c3c2[nH]c2ccccc32)cc1 (centres unmarked) [Compound 19i] — lower, 13.5%
- c1ccc(C2CC3(CCCCC3)c3c2[nH]c2ccccc32)cc1 (centres unmarked) [Compound 19e] — lower, 78.4%
- CN1c2ccccc2[C@]2(C)C3CCC(C3=O)[C@H]12 (some centres unmarked) [Compound 23] — lower, 6.9%
- O=C1OC2CCC1[C@]13CCN[C@]21Nc1ccccc13 (some centres unmarked) [Compound 27] — lower, -5.1%
- O=C1C2CCC1[C@@]1(CCO)c3ccccc3N(Cc3ccccc3)[C@@H]21 (some centres unmarked) [Compound 24] — lower, -3.3%

Same assay, conditions: 20 μM, single point, read-out: Primary SP mSTC (% Stim.)

Point of comparison: `c1ccc(C2CC3(CCCCC3)c3c2[nH]c2ccccc32)cc1` (centres unmarked) [Compound 19e], activation at 20 µM 109%. Against it:
- CC1(C)C(=O)C[C@@]2(C)c3ccccc3N(Cc3ccccc3)[C@@]12C [Compound 30] — lower, 49.9%
- CC1(C)C(=O)C[C@]23CCCC[C@]12Nc1ccccc13 [Compound 20] — lower, 8.2%
- Cc1ccc(C2CC3(CCCCC3)c3c2[nH]c2ccc(C)cc32)cc1 (centres unmarked) [Compound 19g] — higher, 124%
- CC(=O)Oc1ccc(C2CC3(CCCCC3)c3c2[nH]c2ccccc32)cc1 (centres unmarked) [Compound 19i] — lower, 104%
- CN1c2ccccc2[C@]2(C)C3CCC(C3=O)[C@H]12 (some centres unmarked) [Compound 23] — lower, 71.3%
- O=C1OC2CCC1[C@]13CCN[C@]21Nc1ccccc13 (some centres unmarked) [Compound 27] — lower, -3.9%
- O=C1C2CCC1[C@@]1(CCO)c3ccccc3N(Cc3ccccc3)[C@@H]21 (some centres unmarked) [Compound 24] — lower, 47.9%
- CC1(C)C(=O)C[C@]23CCCC[C@]12N(Cc1ccccc1)c1ccccc13 [Compound 25] — lower, 51.1%

Same assay, conditions: concentration response curve, read-out: Primary CRC (EC50, μM) mSTC

In the case of `CC1(C)C(=O)C[C@@]2(C)c3ccccc3N(Cc3ccccc3)[C@@]12C` [Compound 30], the EC50 was 0.85 µM and 0.51 µM.
For `CC1(C)c2c([nH]c3ccc(C(F)(F)F)cc23)C2C=CC1C2` (centres unmarked) [Compound 11y], the EC50 was 10.4 µM and 5.88 µM.
For `O=C1C2CCC1[C@@]1(CCO)c3ccccc3N(Cc3ccccc3)[C@@H]21` (some centres unmarked) [Compound 24], the EC50 was 15.2 µM and 13.5 µM.

Point of comparison: `CN1c2ccccc2[C@]2(C)C3CCC(C3=O)[C@H]12` (some centres unmarked) [Compound 23], EC50 6.18 µM. Against it:
- CC(=O)Oc1ccc(C2CC3(CCCCC3)c3c2[nH]c2ccccc32)cc1 (centres unmarked) [Compound 19i] — higher, > 40 µM
- CC1(C)C(=O)C[C@]23CCCC[C@]12N(Cc1ccccc1)c1ccccc13 [Compound 25] — 31-fold lower, 0.2 µM

Tested on: hNCI-H716
Assay: hNCI basal LDH secretion
Format: cell-based
Settings: read-out: Primary CRC (EC50, μM) hNCI Basal
Procedure: as §1

`CC1(C)C(=O)C[C@@]2(C)c3ccccc3N(Cc3ccccc3)[C@@]12C` [Compound 30] and `CC1(C)C(=O)C[C@]23CCCC[C@]12N(Cc1ccccc1)c1ccccc13` [Compound 25] cannot be ordered by EC50: > 40 µM for the first, > 40 µM for the second.

`CN1c2ccccc2[C@]2(C)C3CCC(C3=O)[C@H]12` (some centres unmarked) [Compound 23] and `O=C1C2CCC1[C@@]1(CCO)c3ccccc3N(Cc3ccccc3)[C@@H]21` (some centres unmarked) [Compound 24] cannot be ordered by EC50: > 40 µM for the first, > 40 µM for the second.
